Test results as given in patent US20170081300A1, “SYDNONE DERIVATIVES FOR CONJUGATION OF COMPOUNDS OF INTEREST” (UNIVERSITE DE STRASBOURG, priority 2014, published 2017).

Key:
Format in all cases: physicochemical
[1] = Kinetic study of the coupling reaction of sydnones with cyclic alkyne BCN in PBS/DMSO (HPLC); details: for K (BCN), second order kinetic constant: PBS/DMSO (9:1), 100 μM sydnone, 150 μM BCN
Protocol: (§1) The kinetics of the coupling reaction of different sydnones with two cyclic alkynes was studied, according to the following scheme.
(§2) Reactions of sydnones with BCN (or TMTH) were carried out in PBS/DMSO (9:1) mixtures at 100 μM concentration of sydnones and 150 μM concentration of BCN using the following procedure:
(§3) To 900 μL of phosphate buffered saline (PBS, 100 mM) was added 87.5 μL of DMSO, 10 μL of the solution of benzamide (internal standard, 100 mM in DMSO), 1 μL of the solution of sydnone (100 mM in DMSO) and 1.5 μL of the solution of BCN (100 mM in DMSO). The reaction mixture was injected in HPLC every 30 min and the conversion was followed by measuring the normalized sydnone peak area.
(§4) Second order reaction rate was determined by plotting ln([A]/[B])/([A]−[B]) versus time and analyzing by linear regression. Second order rate constant corresponds to the determined slope.

[2] = Kinetic study of the coupling reaction of sydnones with cyclic alkyne TMTH in PBS/DMSO (HPLC); details: PBS/DMSO (9:1), 100 μM sydnone
Protocol: as §1, §2, §3, §4

[3] = HPLC monitoring of the cycloaddition reaction with BCN in blood plasma; details: 100 μM sydnone, 150 μM BCN, after 1 hour
Protocol: Reactions of sydnone S1-2 with bicyclononyne BCN was carried out in blood plasma at 100 μM concentration of sydnone and 150 μM concentration of cyclooctyne BCN using the following procedure:
To 900 μL of blood plasma were added 10 μL of the solution of benzamide (internal standard, 100 mM in DMSO), 1 μL of the solution of sydnone (100 mM in DMSO) and 1.5 μL of the solution of BCN (100 mM in DMSO). The reaction mixture was injected in HPLC every 30 min and the conversion was followed by measuring the normalized sydnone peak area.

O=C(O)c1ccc(-[n+]2cc([O-])on2)cc1 [Sydnone S0-4, 3-(4-carboxyphenyl)-1,2,3λ^5-oxadiazol-3-ylium-5-olate, reference compound]
K (BCN), second order kinetic constant [1]: 0.059 ± 0.001 M⁻¹ s⁻¹

O=C(O)c1ccc(-[n+]2noc([O-])c2Cl)cc1 [Sydnone S1-2, 3-(4-carboxyphenyl)-4-chloro-1,2,3λ^5-oxadiazol-3-ylium-5-olate]
K (TMTH), second order kinetic constant [2]: 322 M⁻¹ s⁻¹
ratio of K constant (BCN) to K constant of the corresponding sydnone not substituted in position 4 ([1]; K(S1-1)/K(S0-3), K(S1-2)/K(S0-4)): 27
K (BCN), second order kinetic constant [1]: 1.593 ± 0.034 M⁻¹ s⁻¹
conversion of sydnone in reaction with BCN [3]: almost complete reaction

O=C(O)c1ccc(-[n+]2noc([O-])c2Br)cc1 [Sydnone S2-2, 4-bromo-3-(4-carboxyphenyl)-1,2,3λ^5-oxadiazol-3-ylium-5-olate]
K (TMTH), second order kinetic constant [2]: 101 M⁻¹ s⁻¹
K (BCN), second order kinetic constant [1]: 0.798 ± 0.065 M⁻¹ s⁻¹
